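Step 1: Grow cells in 96-well plates. Step 2: Expose to compound for 48 hours at 5 concentrations. Step 3: Interpolate endpoints linearly; if unreached, use highest concentration. GI50 is the concentration that inhibits growth by half. TGI: concentration producing complete growth inhibition.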 Where a SMILES comes first, the peptide text is derived from it. The star is where a group is joined. Boc = CC(C)(C)OC(=O)*; OBn = c1ccc(CO*)cc1
Legend:
Test in all cases: NCI-60 cell line screen, 48 h
SNB-75 CNS = system: SNB-75 CNS
OVCAR-8 ovarian = system: OVCAR-8 ovarian
DU-145 prostate = system: DU-145 prostate
UO-31 renal = system: UO-31 renal
SNB-19 CNS = system: SNB-19 CNS
NCI-H460 lung = system: NCI-H460 lung
HOP-92 NSCLC = system: HOP-92 NSCLC
K-562 leukemia = system: K-562 leukemia
U251 CNS = system: U251 CNS
RPMI-8226 leukemia = system: RPMI-8226 leukemia

| SMILES | TGI (SNB-75 CNS) [µM] | TGI (OVCAR-8 ovarian) [µM] | TGI (DU-145 prostate) [µM] | TGI (UO-31 renal) [µM] | TGI (SNB-19 CNS) [µM] | TGI (NCI-H460 lung) [µM] | TGI (HOP-92 NSCLC) [µM] | TGI (K-562 leukemia) [µM] | TGI (U251 CNS) [µM] | TGI (RPMI-8226 leukemia) [µM] | GI50 (SNB-75 CNS) [nM] | GI50 (OVCAR-8 ovarian) [nM] | GI50 (DU-145 prostate) [µM] | GI50 (UO-31 renal) [nM] | GI50 (SNB-19 CNS) [µM] | GI50 (NCI-H460 lung) [nM] | GI50 (HOP-92 NSCLC) [µM] | GI50 (K-562 leukemia) [nM] | GI50 (U251 CNS) [nM] | GI50 (RPMI-8226 leukemia) [nM] |
| --- | --- | --- | --- | --- | --- | --- | --- | --- | --- | --- | --- | --- | --- | --- | --- | --- | --- | --- | --- | --- |
| CCOC(=O)C(NC(=O)CC)(Nc1ccc(S(=O)(=O)Nc2onc(C)c2C)cc1)C(F)(F)F (centres undefined) | > 100 | > 100 | > 100 | > 100 | > 100 | > 100 | > 100 | > 100 | > 100 | > 100 | – | – | – | – | – | – | – | – | – | – |
| CC12CCCCC1=[N+]([O-])C(C)(C)N2O (centres undefined) | – | > 100 | > 100 | > 100 | > 100 | > 100 | > 100 | – | > 100 | > 100 | – | – | – | – | – | – | – | – | – | – |
| O=C(Sc1c(-c2ccccc2)c(=O)n(-c2ccccc2)c(=S)n1-c1ccccc1)c1cccs1 | > 100 | > 100 | > 100 | > 100 | > 100 | > 100 | > 100 | > 100 | > 100 | > 100 | – | – | – | – | – | – | – | – | – | – |
| Cc1ccc(S(=O)(=O)[C@@H](Cl)[C@H]2N=C(Cl)NN=C2c2ccccc2)cc1 | 97.4 | 44.6 | 70.9 | 35.7 | > 100 | > 100 | 54.3 | > 100 | 55.9 | > 100 | – | – | – | – | – | – | – | – | – | – |
| Cc1nnc2n(c1=O)CCN2C | > 100 | > 100 | > 100 | > 100 | > 100 | > 100 | > 100 | > 100 | > 100 | > 100 | – | – | – | – | – | – | – | – | – | – |
| CO[C@H]1O[C@@H]2CO[C@@H](c3ccccc3)O[C@H]2[C@@H]2C/C=C\CCC[C@@]12O | > 100 | > 100 | 51.8 | > 100 | > 100 | 33 | 43.7 | 51.1 | 40.2 | 44.2 | – | – | – | – | – | – | – | – | – | – |
| CCOc1ccc(N=NC2C(=O)N(C(=O)CC(=O)Nc3ccccc3)N=C2C)cc1 (centres undefined) | > 100 | > 100 | > 100 | > 100 | > 100 | > 100 | 90.7 | – | > 100 | – | – | – | – | – | – | – | – | – | – | – |
| Nc1nccc(NCC2(CO)CCC2)n1 | > 100 | > 100 | > 100 | > 100 | – | > 100 | > 100 | > 100 | > 100 | > 100 | – | – | – | – | – | – | – | – | – | – |
| CC(C)(O)C1CC[C@]2(C)[C@H]3CC[C@@H]4[C@@]5(C)CCCC(C)(C)[C@@H]5CC[C@@]4(C)[C@]3(C)CC[C@@H]12 (some centres undefined) | – | > 100 | > 100 | – | > 100 | > 100 | > 100 | – | > 100 | > 100 | – | – | – | – | – | – | – | – | – | – |
| Cc1ccc(-n2cc(-c3ccc(Cl)cc3)c3c(NN)ncnc32)cc1 | 7.6 | 7.02 | 12.8 | 12.3 | 40.9 | 14.1 | 9.04 | 12 | 15.6 | – | – | – | – | – | – | – | – | – | – | – |
| NC(Cc1c[nH]c2cc([N+](=O)[O-])ccc12)C(=O)O (centres undefined) | > 100 | > 100 | > 100 | > 100 | > 100 | > 100 | > 100 | > 100 | > 100 | > 100 | – | – | – | – | – | – | – | – | – | – |
| COc1ccc(/C=C/C(=O)c2ccc(-n3cc(CN4CCN(c5cc6c(cc5F)c(=O)c(C(=O)O)cn6C5CC5)CC4)nn3)cc2)cc1OC | 4.29 | > 100 | 34.9 | 9.01 | 66.7 | 6.66 | 38.3 | > 100 | > 100 | 4.46 | 1490 | 4030 | 3.67 | 1730 | 4.52 | 2400 | 11.7 | 977 | 1480 | 401 |
| COC(=O)c1c(C)cccc1C1CN=NC12Cc1ccc(C)c(C)c1C2=O (centres undefined) | > 100 | > 100 | > 100 | > 100 | > 100 | > 100 | > 100 | > 100 | > 100 | > 100 | – | – | – | – | – | – | – | – | – | – |
| CC(C)CC(NC(=O)OC(C)(C)C)C(=O)NC(CC(=O)OCc1ccccc1)C(=O)OCc1ccccc1 (stereo not drawn) (Boc-Leu-Asp(OBn)-OBn; configuration not given here) | > 100 | > 100 | > 100 | 75 | 99.5 | > 100 | > 100 | > 100 | 81.7 | 97.3 | – | – | – | – | – | – | – | – | – | – |
| COC(=O)c1c(CC(Cc2ccc3c(c2)CCCC3)C(=O)OC)ccc2c1CCCC2 (centres undefined) | – | > 100 | > 100 | > 100 | > 100 | > 100 | > 100 | > 100 | > 100 | > 100 | – | – | – | – | – | – | – | – | – | – |
| CC(=O)OC1C2CCC3C(C)(O)C4CC(O)C(C)(C)C4(O)C(O)CC13CC2(C)O (centres undefined) | > 100 | > 100 | > 100 | > 100 | > 100 | – | > 100 | > 100 | – | > 100 | – | – | – | – | – | – | – | – | – | – |
| C[N+](C)(C)C=Nc1cccc2c1CCCC2 | > 100 | > 100 | > 100 | > 100 | > 100 | – | > 100 | > 100 | > 100 | > 100 | – | – | – | – | – | – | – | – | – | – |
| CS[C@]12[C@@H]3C(=O)N(C)C(=O)[C@@H]3[C@](C)(C(=O)N1C)C(=O)N2c1ccccc1 | > 100 | > 100 | > 100 | > 100 | > 100 | – | > 100 | – | > 100 | > 100 | – | – | – | – | – | – | – | – | – | – |
| N#C/C(=C\c1ccc([N+](=O)[O-])s1)c1nc2cc(Cl)ccc2s1 | – | 69.2 | > 100 | 2.8 | > 100 | – | 1.6 | > 100 | 3.02 | 3.26 | – | 555 | 2.75 | 602 | 1.58 | – | 0.287 | 264 | 599 | 675 |
| Cc1c(OCc2ccccc2)c(=O)ccn1CCc1c[nH]c2ccccc12 | – | > 100 | > 100 | > 100 | > 100 | > 100 | 51.3 | – | > 100 | 59.3 | – | – | – | – | – | – | – | – | – | – |
